Source: ChEMBL document CHEMBL1130741, “Carboxy-substituted 2-azetidinones as cholesterol absorption inhibitors” (1998)

Experiments:
Assay type in all cases: functional, Cricetulus griseus
[1] = tested on: Cricetinae gen. sp.; assay: Compound was tested for percent reduction of liver cholesterol esters absorption in cholesterol fed hamster model at an oral dose of 10 mg/kg/day
[2] = tested on: Cricetinae gen. sp.; assay: Dose required to inhibit cholesterol absorption in cholesterol fed hamster model
[3] = tested on: Cricetinae gen. sp.; assay: Compound was tested for percent reduction of serum cholesterol absorption in cholesterol fed hamster model at an oral dose of 10 mg/kg/day
[4] = tested on: Cricetinae gen. sp.; assay: Compound was tested for percent reduction of liver cholesterol esters absorption in cholesterol fed hamster model at an oral dose of 3 mg/kg/day
[5] = tested on: Cricetinae gen. sp.; assay: Compound was tested for percent reduction of serum cholesterol absorption in cholesterol fed hamster model at an oral dose of 3 mg/kg/day
[6] = tested on: Cricetinae gen. sp.; assay: Compound was tested for percent reduction of liver cholesterol esters absorption in cholesterol fed hamster model at an oral dose of 50 mg/kg/day

Structure (SMILES) | Reduction [1] | Reduction [3] | Reduction [4] | Reduction [5] | Reduction [6] | further results
COc1ccc([C@@H]2[C@@H](CCCc3ccccc3)C(=O)N2c2ccc(OC)cc2)cc1 [SCH-48461] | -93% | -43% |  |  |  | ED50 [2]: 2 mg/kg/day
O=C(O)Cc1ccc([C@@H]2[C@@H](CCCc3ccccc3)C(=O)N2c2ccc(F)cc2)cc1 | -97% | -44% |  |  |  | ED50 [2]: 1.1 mg/kg/day
COC(=O)CCc1ccc([C@@H]2[C@@H](CCCc3ccccc3)C(=O)N2c2ccc(F)cc2)cc1 | -72% | -26% |  |  |  | 
COC(=O)c1ccc([C@@H]2[C@@H](CCCc3ccccc3)C(=O)N2c2ccc(F)cc2)cc1 |  |  | -16% | 0% |  | 
COC(=O)Cc1ccc([C@@H]2[C@@H](CCCc3ccccc3)C(=O)N2c2ccc(OC)cc2)cc1 |  |  | -89% | -26% |  | ED50 [2]: 0.95 mg/kg/day
CCN(CC)C(=O)CCc1ccc([C@@H]2[C@@H](CCCc3ccccc3)C(=O)N2c2ccc(F)cc2)cc1 | -19% | 0% |  |  |  | 
CCN(CC)C(=O)Cc1ccc([C@@H]2[C@@H](CCCc3ccccc3)C(=O)N2c2ccc(F)cc2)cc1 | -19% | 0% |  |  |  | 
COC(=O)Cc1ccc([C@@H]2[C@@H](CCCc3ccccc3)C(=O)N2c2ccc(F)cc2)cc1 |  |  | -61% | -16% |  | 
COC(=O)C(C)(C)Oc1ccc([C@@H]2[C@@H](CCCc3ccccc3)C(=O)N2c2ccc(OC)cc2)cc1 |  |  |  |  | -80% | 
COc1ccc(N2C(=O)[C@H](CCCc3ccccc3)[C@H]2c2ccc(OC(C)(C)C(=O)O)cc2)cc1 (racemic) |  |  |  |  | -75% | 
O=C(O)CCc1ccc([C@@H]2[C@@H](CCCc3ccccc3)C(=O)N2c2ccc(F)cc2)cc1 | -63% | -32% |  |  |  | 
COc1ccc([C@@H]2[C@@H](CCCc3ccccc3)C(=O)N2c2ccc(OC)cc2)cc1 (racemic) [SCH-48461] |  |  |  |  | -78% | 
COC(=O)/C=C/c1ccc([C@@H]2[C@@H](CCCc3ccccc3)C(=O)N2c2ccc(OC)cc2)cc1 |  |  |  |  | -90% | 
COC(=O)CCc1ccc([C@@H]2[C@@H](CCCc3ccccc3)C(=O)N2c2ccc(OC)cc2)cc1 (racemic) |  |  |  |  | -93% | 
O=C(O)c1ccc([C@@H]2[C@@H](CCCc3ccccc3)C(=O)N2c2ccc(F)cc2)cc1 |  |  | -37% | 0% |  | 
COC(=O)CCc1ccc([C@@H]2[C@@H](CCCc3ccccc3)C(=O)N2c2ccc(OC)cc2)cc1 |  |  | -76% | -20% |  | ED50 [2]: 0.85 mg/kg/day
